Common to all, as to type: in vivo
For assay [1], the system named is Green Peach Aphid (Myzus persicae). Kind of assay: Green peach aphid spray test on bell pepper plants, mortality. As to conditions: 120 h, after 5 days, sprayed bell pepper plants, read-out: mortality in comparison with untreated controls. The text has this:
(§1) The active compounds were formulated in cyclohexanone as a 10,000 ppm solution supplied in tubes. The tubes were inserted into an automated electrostatic sprayer equipped with an atomizing nozzle and they served as stock solutions for which lower dilutions were made in 50% acetone:50% water (v/v). A nonionic surfactant (Kinetic®) was included in the solution at a volume of 0.01% (v/v).
Bell pepper plants at the first true-leaf stage were infested prior to treatment by placing heavily infested leaves from the main colony on top of the treatment plants. Aphids were allowed to transfer overnight to accomplish an infestation of 30-50 aphids per plant and the host leaves were removed. The infested plants were then sprayed by an automated electrostatic plant sprayer equipped with an atomizing spray nozzle. The plants were dried in the sprayer fume hood, removed, and then maintained in a growth room under fluorescent lighting in a 24-hr photoperiod at about 25° C. and about 20-40% relative humidity. Aphid mortality on the treated plants, relative to mortality on untreated control plants, was determined after 5 days.

Assay [2] concerns Southern Armyworm (Spodoptera eridiana); 2nd Instar Larvae. In words: Southern armyworm foliar spray test on lima bean, mortality. As to conditions: for mortality at 1 ppm: Concentration 1 ppm; for mortality at 1 ppm / mortality at 10 ppm / mortality at 30 ppm: southern armyworm, Table D; for mortality at 10 ppm: Concentration 10 ppm; for mortality at 30 ppm: Concentration 30 ppm; for mortality at 500 ppm: Spodoptera, 96 h, 4 days after treatment, lima bean foliage spray, read-out: mortality in comparison with untreated controls. Here is the method: as §1
Lima bean plants (variety Sieva) were grown 2 plants to a pot and selected for treatment at the 1st true leaf stage. Test solutions were sprayed onto the foliage by an automated electrostatic plant sprayer equipped with an atomizing spray nozzle. The plants were dried in the sprayer fume hood and then removed from the sprayer. Each pot was placed into perforated plastic bags with a zip closure. About 10 to 11 armyworm larvae were placed into the bag and the bags zipped closed. Test plants were maintained in a growth room at about 25° C. and about 20-40% relative humidity for 4 days, avoiding direct exposure to fluorescent light (24 hour photoperiod) to prevent trapping of heat inside the bags. Mortality and reduced feeding were assessed 4 days after treatment, compared to untreated control plants.

Assay [3] deals with Mediterranean Fruitfly (Ceratitis capitata). In words: Mediterranean fruitfly microtiter diet test, egg and larval mortality. The note with it: 120 h, 5 days, insect diet, read-out: mortality in comparison with untreated controls. Here is the method:
For evaluating control of Mediterranean fruitfly (Ceratitis capitata) the test unit consisted of microtiter plates containing an insect diet and 50-80 C. capitata eggs.
The compounds were formulated using a solution containing 75% v/v water and 25% v/v DMSO. Different concentrations of formulated compounds were sprayed onto the insect diet at 5 μl, using a custom built micro atomizer, at two replications.
After application, microtiter plates were incubated at about 28±1° C. and about 80±5% relative humidity for 5 days. Egg and larval mortality was then visually assessed.

In assay [4] the test system is Colorado Potato Beetle (Leptinotarsa decemlineata) (2nd instar larvae). Kind of assay: Colorado potato beetle foliar spray test on eggplant, mortality. As to conditions: 96 h, 4 days after treatment, Table E; for mortality at 1 ppm: Concentration 1 ppm; for mortality at 10 ppm: Concentration 10 ppm; for mortality at 30 ppm: Concentration 30 ppm. As to the method:
as §1
Eggplants were grown 2 plants to a pot and were selected for treatment at the 1st true leaf stage. Test solutions were sprayed onto the foliage by an automated electrostatic plant sprayer equipped with an atomizing spray nozzle. The plants were dried in the sprayer fume hood and then removed from the sprayer. The treated foliage was then cut and removed from the pot and placed in a Petri dish lined with moistened filter paper. Five beetle larvae were introduced into each Petri dish and the dish was covered by a Petri dish lid. Petri dishes were maintained in a growth room at about 25° C. and about 20-40% relative humidity for 4 days, avoiding direct exposure to fluorescent light (24 hour photoperiod) to prevent trapping of heat inside the dishes. Mortality and reduced feeding were assessed 4 days after treatment, compared to untreated control plants.

Assay [5] relates to Boll weevil (Anthonomus grandis). Kind of assay: Boll weevil microtiter diet test, egg and larval mortality. As to conditions: 120 h, 5 days, insect diet, read-out: mortality in comparison with untreated controls. As to the method: For evaluating control of boll weevil (Anthonomus grandis) the test unit consisted of 24-well-microtiter plates containing an insect diet and 20-30 A. grandis eggs.
The compounds were formulated using a solution containing 75% v/v water and 25% v/v DMSO. Different concentrations of formulated compounds were sprayed onto the insect diet at 20 μl, using a custom built micro atomizer, at two replications.
After application, microtiter plates were incubated at about 23±1° C. and about 50±5% relative humidity for 5 days. Egg and larval mortality was then visually assessed.

In assay [6] the test system is Vetch aphid (Megoura viciae). In words: Vetch aphid broad bean leaf disk test, mortality. As to conditions: foliar, 120 h, 5 days, adult aphids on broad bean leaf disks, read-out: mortality in comparison with untreated controls. Here is the method: For evaluating control of vetch aphid (Megoura viciae) through contact or systemic means the test unit consisted of 24-well-microtiter plates containing broad bean leaf disks.
The compounds were formulated using a solution containing 75% v/v water and 25% v/v DMSO. Different concentrations of formulated compounds were sprayed onto the leaf disks at 2.5 μl, using a custom built micro atomizer, at two replications.
After application, the leaf disks were air-dried and 5-8 adult aphids placed on the leaf disks inside the microtiter plate wells. The aphids were then allowed to suck on the treated leaf disks and incubated at about 23±1° C. and about 50±5% relative humidity for 5 days. Aphid mortality and fecundity was then visually assessed.

For assay [7], the system named is Diamond Backmoth (Plutella xylostella). Kind of assay: Diamond backmoth leaf-dip test, mortality. The note with it: 72 hours after treatment, 3rd instar larvae on dipped cabbage leaves, read-out: mortality in comparison with untreated controls. As to the method: The active compound was dissolved at the desired concentration in a mixture of 1:1 (vol:vol) distilled water:aceteone. Surfactant (Alkamuls® EL 620) was added at a rate of 0.1% (vol/vol). The test solution was prepared at the day of use.
Leaves of cabbage were dipped in test solution and air-dried. Treated leaves were placed in petri dishes lined with moist filter paper and inoculated with ten 3rd instar larvae. Mortality was recorded 72 hours after treatment. Feeding damages were also recorded using a scale of 0-100%.

In assay [8] the test system is TOBACCO budworm (Heliothis virescens). In words: Tobacco budworm microtiter diet test, egg and larval mortality. The note with it: 120 h, 5 days, insect diet, read-out: mortality in comparison with untreated controls. As to the method:
For evaluating control of tobacco budworm (Heliothis virescens) the test unit consisted of 96-well-microtiter plates containing an insect diet and 15-25 H. virescens eggs. The compounds were formulated using a solution containing 75% v/v water and 25% v/v DMSO. Different concentrations of formulated compounds were sprayed onto the insect diet at 10 μl, using a custom built micro atomizer, at two replications.
After application, microtiter plates were incubated at about 28±1° C./and about 80±5% relative humidity for 5 days. Egg and larval mortality was then visually assessed.

For assay [9], the system named is Cowpea Aphid (Aphis Craccivora). In words: Cowpea aphid spray test on potted cowpea plants, mortality. As to conditions: after 72 hours, sprayed cowpea plants, read-out: mortality in comparison with untreated controls. As to the method:
The active compound was dissolved at the desired concentration in a mixture of 1:1 (vol:vol) distilled water:acetone. Surfactant (Alkamuls® EL 620) is added at a rate of 0.1% (vol/vol). The test solution was prepared at the day of use.
Potted cowpea plants were colonized with approximately 50-100 aphids of various stages by manually transferring a leaf tissue cut from infested plant 24 hours before application. Plants were sprayed after the pest population has been recorded. Treated plants were maintained on light carts at about 28° C. Percent mortality was assessed after 72 hours.

For assay [10], the system named is Orchid Thrips (dichromothrips corbetti). In words: Orchid thrips floral-immersion test, mortality. The note with it: 72 hours after treatment, adult thrips, read-out: mortality in comparison with untreated controls. As to the method:
Dichromothrips corbetti adults used for bioassay were obtained from a colony maintained continuously under laboratory conditions. For testing purposes, the test compound was diluted in a 1:1 mixture of acetone:water (vol:vol), plus 0.01% vol/vol Alkamuls® EL 620 surfactant.
Thrips potency of each compound was evaluated by using a floral-immersion technique. Plastic petri dishes were used as test arenas. All petals of individual, intact or chid flowers were dipped into treatment solution and allowed to dry. Treated flowers were placed into individual petri dishes along with about 20 adult thrips. The petri dishes were then covered with lids. All test arenas were held under continuous light and a temperature of about 28° C. for duration of the assay. After 3 days, the numbers of live thrips were counted on each flower, and along inner walls of each petri dish. The percent mortality was recorded 72 hours after treatment.

For the compound `CNC(=O)CONC(=O)c1cc(Cl)cc(C)c1NC(=O)c1cc(Br)nn1-c1ncccc1Cl` [Compound 1-3, 5-bromo-2-(3-chloro-pyridin-2-yl)-2H-pyrazole-3-carboxylic acid (4-chloro-2-methyl-6-methylcarbamoylmethoxycarbamoyl-phenyl)-amide], the mortality at 2500 ppm in [1], in [3], in assay [5], in [6] and in assay [8] was more than 75% each time. Also, the mortality at 1 ppm in [2] and in [4] was 100% in each case. Besides, the mortality at 10 ppm in assay [2] and in [4] was 100% throughout. In addition, the mortality at 30 ppm in [2] and in assay [4] was 100% each time. The mortality at 500 ppm in assay [2] and in [7] was 100% in each case.

For `CNC(=O)CONC(=O)c1cc(Br)cc(Br)c1NC(=O)c1cc(Br)nn1-c1ncccc1Cl` [Compound 1-10, 5-bromo-2-(3-chloro-pyridin-2-yl)-2H-pyrazole-3-carboxylic acid (2,4-dibromo-6-methylcarbamoylmethoxycarbamoyl-phenyl)-amide], the mortality at 500 ppm was more than 75% in [9], 100% in assay [2], more than 75% in [10] and 100% in [7]. Also, the mortality at 2500 ppm in assay [1], in [3], in assay [5], in assay [6] and in [8] was more than 75% each time.

As to `Cc1cc(Cl)cc(C(=O)NNCC(=O)NCc2ccccc2)c1NC(=O)c1cc(Br)nn1-c1ncccc1Cl` [Compound 1-11, 5-bromo-2-(3-chloro-pyridin-2-yl)-2H-pyrazole-3-carboxylic acid {2-[N′-(benzylcarbamoyl-methyl)-hydrazinocarbonyl]-4-chloro-6-methyl-phenyl}-amide], the mortality at 2500 ppm in [1], in assay [3], in assay [5], in [6] and in assay [8] was more than 75% throughout. In addition, the mortality at 500 ppm in [2] and in assay [7] was 100% each time.

In assay [2], `CONC(=O)c1cc(Cl)cc(C)c1NC(=O)c1cc(Br)nn1-c1ncccc1Cl` [Compound X-1, 5-bromo-2-(3-chloro-pyridin-2-yl)-2H-pyrazole 3-carboxylic acid (4-chloro-2-methoxycarbamoyl-6-methyl-phenyl)amide, reference compound] gave a mortality at 1 ppm of 0%, a mortality at 10 ppm of 100% and a mortality at 30 ppm of 100%. In [4], the mortality at 1 ppm was determined as 0%, the mortality at 10 ppm came to 100% and the mortality at 30 ppm came to 100%.

Values taken from patent US20140200135A1, “Carbamoylmethoxy- and carbamoylmethylthio- and carbamoylmethylamino benzamides for combating invertebrate pests” (BASF SE, priority 2011, published 2014).
